Measurements taken from ChEMBL document CHEMBL1130963, “Design and construction of novel thrombin inhibitors featuring P3-P4 quaternary lactam dipeptide surrogates” (Bioorg Med Chem Lett, 1998).

Key:
Serine protease 1 = Serine protease 1 (Homo sapiens, UniProt P07477)
Coagulation factor X [1] = molecular target: T1, Coagulation factor X (Homo sapiens, UniProt P00742)
Plasminogen [2] = molecular target: T2, Plasminogen (Homo sapiens, UniProt P00747); assay: In vitro inhibitory activity was evaluated against thrombolytic enzyme plasmin
T2 sequence (P00747 97-580 limits assumed): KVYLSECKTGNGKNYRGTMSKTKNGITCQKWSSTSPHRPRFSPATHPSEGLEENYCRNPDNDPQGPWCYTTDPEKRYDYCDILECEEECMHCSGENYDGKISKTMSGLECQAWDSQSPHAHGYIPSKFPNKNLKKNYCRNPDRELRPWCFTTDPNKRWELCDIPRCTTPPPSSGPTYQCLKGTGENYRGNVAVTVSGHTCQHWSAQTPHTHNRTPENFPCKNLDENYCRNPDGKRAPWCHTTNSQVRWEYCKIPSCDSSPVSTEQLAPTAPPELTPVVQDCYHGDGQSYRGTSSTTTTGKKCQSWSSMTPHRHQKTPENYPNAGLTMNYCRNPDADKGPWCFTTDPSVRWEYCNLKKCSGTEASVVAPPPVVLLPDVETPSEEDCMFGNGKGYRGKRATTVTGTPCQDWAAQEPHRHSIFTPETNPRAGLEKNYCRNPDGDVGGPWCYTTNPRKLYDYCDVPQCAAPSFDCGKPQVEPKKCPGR
T2 sequence (P00747 581-810 limits assumed): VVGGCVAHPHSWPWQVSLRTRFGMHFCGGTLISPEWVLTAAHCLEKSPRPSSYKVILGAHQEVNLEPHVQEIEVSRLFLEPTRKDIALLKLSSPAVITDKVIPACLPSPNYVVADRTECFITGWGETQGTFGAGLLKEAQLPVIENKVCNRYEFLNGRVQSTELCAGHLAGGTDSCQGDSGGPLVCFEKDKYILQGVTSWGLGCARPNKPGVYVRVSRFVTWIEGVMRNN

Prothrombin = Prothrombin (Homo sapiens, UniProt P00734); assay: In vitro inhibitory activity was evaluated against thrombin (FIIa)
[3] = Ratio of thrombolytic enzyme plasmin to thrombin (FIIa) was evaluated
Coagulation factor X [4] = molecular target: T1, Coagulation factor X; assay: In vitro inhibitory activity was evaluated against thrombin factor Xa (FXa); Inactive
[5] = Ratio of thrombin factor Xa (FXa) to thrombin (FIIa) was evaluated; Very high
Plasminogen [6] = molecular target: T2, Plasminogen; assay: In vitro inhibitory activity was evaluated against thrombolytic enzyme plasmin; Inactive

Sequence of Serine protease 1 (P07477 whole entry): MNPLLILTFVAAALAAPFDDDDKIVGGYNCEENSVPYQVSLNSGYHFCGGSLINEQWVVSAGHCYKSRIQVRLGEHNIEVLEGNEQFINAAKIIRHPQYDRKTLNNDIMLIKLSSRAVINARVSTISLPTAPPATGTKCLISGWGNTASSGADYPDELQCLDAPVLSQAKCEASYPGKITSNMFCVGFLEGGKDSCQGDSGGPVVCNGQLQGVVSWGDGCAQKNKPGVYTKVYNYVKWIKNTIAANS
T1 sequence (P00742 41-179 limits assumed): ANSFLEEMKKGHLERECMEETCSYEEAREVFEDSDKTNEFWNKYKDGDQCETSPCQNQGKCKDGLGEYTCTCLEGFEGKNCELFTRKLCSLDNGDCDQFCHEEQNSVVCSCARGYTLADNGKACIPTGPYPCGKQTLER
T1 sequence (P00742 235-488 limits assumed): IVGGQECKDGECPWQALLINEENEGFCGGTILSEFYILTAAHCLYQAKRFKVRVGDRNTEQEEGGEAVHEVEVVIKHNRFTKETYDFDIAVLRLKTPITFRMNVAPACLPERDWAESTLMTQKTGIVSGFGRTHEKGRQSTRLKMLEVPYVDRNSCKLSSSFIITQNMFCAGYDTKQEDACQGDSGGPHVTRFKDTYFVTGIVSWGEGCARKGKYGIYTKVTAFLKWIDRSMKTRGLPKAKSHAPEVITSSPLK

SMILES | IC50 (Serine protease 1) [nM] | IC50 (Coagulation factor X [1]) [nM] | IC50 (Plasminogen [2]) [nM] | IC50 (Prothrombin) [nM] | Ratio [3] | IC50 (Coagulation factor X [4]) | Ratio [5] | IC50 (Plasminogen [6])
CCOC(=O)[C@]1(NS(=O)(=O)Cc2ccccc2)CCCN(CC(=O)N[C@H]2CCCN(C(=N)N)[C@H]2O)C1=O | 202 | 43.2 | > 2500 | 64.4 | 3.1 | – | – | –
N=C(N)N1CCC[C@H](NC(=O)CN2CCC[C@H](NS(=O)(=O)Cc3ccccc3)C2=O)C1O (stereo partly drawn) | – | – | > 2500 | – | 128 | – | – | –
CCOC(=O)[C@]1(NS(=O)(=O)Cc2ccccc2)CCCN(CC(=O)N[C@H]2CCCN(C(=N)N)[C@@H]2O)C1=O | 2 | 5.78 | 271 | 1.1 | 1.8 | – | – | –
N=C(N)N1CCC[C@H](NC(=O)CN2CCC[C@@](N)(Cc3ccccc3)C2=O)[C@H]1O | 139 | – | – | 2.07 | 67.1 | Not Active | Very high | Not Active
N=C(N)N1CCC[C@H](NC(=O)CN2CCC[C@@](N)(Cc3ccccc3)C2=O)[C@@H]1O | 2500 | – | – | 138 | 18.2 | Not Active | – | Not Active
